Measured values as given in patent US11998558B2, “Synthetic composition for treating antibiotic associated complications” (GLYCOM A/S, priority 2015, dated 2024).

Tests used:
[1] = test system: totality of B. longum + B. bifidum + B. animalis lactis + B. angulatum; experiment: Healthy adult study, ITS profiling of the Bifidobacterium community in faecal samples; format: in vivo, human; details: healthy adults
Procedure: (§1) A total of 100 male and female healthy adults are recruited to participate in the study. After a screening visit and run-in period of 1-2 weeks, the participants are selected and randomized into ten groups, each of 10 subjects. One group is administered daily a placebo product containing 2 grams of glucose. The remaining 9 groups are administered daily a treatment product containing one of the following: a) 20 g of 2′-FL, b) 10 g of 2′-FL, c) 5 g of 2′-FL, d) 20 g of LNnT, e) 10 g of LNnT, f) 5 g of LNnT, g) 20 g of a 2:1 mixture of 2′-FL and LNnT, h) 10 g of a 2:1 mixture of 2′-FL and LNnT, and i) 5 g of a 2:1 mixture of 2′-FL and LNnT for 2 weeks. The placebo and treatment products are in powder form in a unit dosage container.
(§2) The study runs for 2 weeks with the participants consuming either a placebo or a treatment product daily. Participants are instructed to consume the products in the morning with breakfast. Compliance is monitored through the interactive internet enabled system.
(§3) To assess the Bifidobacterium community, ITS profiling of DNA samples is performed according to Milani et al, FEMS Microbiol. Ecol. 90, 493 (2014). […] Both B. adolescentis and B. pseudocatenulatum are members of the B. adolescentis phylogenetic group. It can be seen that oral ingestion of the HMOs clearly increases the abundance of B. adolescentis and/or B. pseudocatenulatum in the microbiota of healthy adults, as well as its relative abundance compared to the totality of other Bifidobacterium species.

[2] = test system: B. adolescentis phylogenetic group; experiment: as above; format: in vivo, human; details: healthy adults
Procedure: as §1, §2, §3

2′-fucosyllactose [2′-FL]
percentage increase of totality of B. longum + B. bifidum + B. animalis lactis + B. angulatum in human faeces after consumption of HMOs ([1]; 5 g daily for 2 weeks): 0%
percentage increase of totality of B. longum + B. bifidum + B. animalis lactis + B. angulatum in human faeces after consumption of HMOs ([1]; 10 g daily for 2 weeks): 20%
percentage increase of totality of B. longum + B. bifidum + B. animalis lactis + B. angulatum in human faeces after consumption of HMOs ([1]; 20 g daily for 2 weeks): 15%
percentage increase of B. adolescentis phylogenetic group in human faeces after consumption of HMOs ([2]; 5 g daily for 2 weeks): 50%
percentage increase of B. adolescentis phylogenetic group in human faeces after consumption of HMOs ([2]; 10 g daily for 2 weeks): 325%
percentage increase of B. adolescentis phylogenetic group in human faeces after consumption of HMOs ([2]; 20 g daily for 2 weeks): 120%

CC(=O)N[C@H]1[C@H](O[C@H]2[C@@H](O)[C@@H](CO)O[C@@H](O[C@H]3[C@H](O)[C@@H](O)C(O)O[C@@H]3CO)[C@@H]2O)O[C@H](CO)[C@@H](O[C@@H]2O[C@H](CO)[C@H](O)[C@H](O)[C@H]2O)[C@@H]1O (mixture of isomers) [LNnT, lacto-N-neotetraose]
percentage increase of totality of B. longum + B. bifidum + B. animalis lactis + B. angulatum in human faeces after consumption of HMOs ([1]; 5 g daily for 2 weeks): 50%
percentage increase of totality of B. longum + B. bifidum + B. animalis lactis + B. angulatum in human faeces after consumption of HMOs ([1]; 10 g daily for 2 weeks): 130%
percentage increase of totality of B. longum + B. bifidum + B. animalis lactis + B. angulatum in human faeces after consumption of HMOs ([1]; 20 g daily for 2 weeks): 105%
percentage increase of B. adolescentis phylogenetic group in human faeces after consumption of HMOs ([2]; 5 g daily for 2 weeks): 90%
percentage increase of B. adolescentis phylogenetic group in human faeces after consumption of HMOs ([2]; 10 g daily for 2 weeks): 195%
percentage increase of B. adolescentis phylogenetic group in human faeces after consumption of HMOs ([2]; 20 g daily for 2 weeks): 185%
